Where a SMILES comes first, the peptide text is derived from it. Bridges are numbered along the chain shown (N, C = ends). [ ]: non-standard residue; d: D form. hPhe(3-Cl-4-CF3) = N[C@@H](CCc1ccc(C(F)(F)F)c(Cl)c1)C(=O)O; NPrPhe(4-CF3) = CCCN[C@@H](Cc1ccc(C(F)(F)F)cc1)C(=O)O; NMeGly(cPent) = CN[C@H](C(=O)O)C1CCCC1; Hyp = O=C(O)[C@@H]1C[C@@H](O)CN1; NMeD = CN[C@@H](CC(=O)O)C(=O)O; NMeL = CN[C@@H](CC(C)C)C(=O)O; NMeA = CN[C@@H](C)C(=O)O; Ac5c = NC1(C(=O)O)CCCC1; Aze = O=C(O)[C@@H]1CCN1; Sar = CNCC(=O)O
Assays:
[1] = molecular target: GDP-bound NRAS wild-type protein (Homo sapiens, UniProt P01111); test: Binding to NRAS by surface plasmon resonance (SPR), Single Cycle Kinetics
Chain of GDP-bound NRAS wild-type protein (P01111 whole entry): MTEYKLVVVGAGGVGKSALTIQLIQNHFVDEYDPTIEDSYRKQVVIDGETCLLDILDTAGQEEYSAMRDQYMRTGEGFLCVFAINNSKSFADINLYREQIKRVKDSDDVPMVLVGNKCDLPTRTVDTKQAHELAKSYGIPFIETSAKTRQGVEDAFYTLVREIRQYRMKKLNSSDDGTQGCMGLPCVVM

[2] = molecular target: GDP-bound HRAS wild-type protein (Homo sapiens, UniProt P01112); test: Binding to HRAS by surface plasmon resonance (SPR), Single Cycle Kinetics
Chain of GDP-bound HRAS wild-type protein (P01112 whole entry): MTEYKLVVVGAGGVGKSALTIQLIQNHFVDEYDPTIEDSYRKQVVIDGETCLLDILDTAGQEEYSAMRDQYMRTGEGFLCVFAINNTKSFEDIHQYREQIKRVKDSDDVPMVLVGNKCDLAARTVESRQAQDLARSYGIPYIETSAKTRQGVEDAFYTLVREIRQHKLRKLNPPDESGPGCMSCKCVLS

[3] = SPR, GDP-bound NRAS wild-type vs GDP-bound KRAS wild-type
[4] = SPR, GDP-bound HRAS wild-type vs GDP-bound KRAS wild-type

SMILES: CCO[C@@H]1C[C@H]2C(=O)NC3(CC(C)(C)C3)C(=O)N(C)[C@@H](C(CC)CC)C(=O)N(C)[C@H](C(=O)N(C)C)CC(=O)N(C)[C@@H](CC3CCC3)C(=O)N[C@@H]([C@@H](C)CC)C(=O)N(C)CC(=O)N(C)[C@H]3C/C=C\CCN(C3=O)[C@@H](Cc3ccc(C)cc3)C(=O)N(C)CC(=O)N[C@@H](CCc3ccc(C(F)(F)F)c(OC)c3)C(=O)N2C1 [PP2172]
- NRAS/KRAS (ratio of KD value with respect to NRAS to KD value with respect to KRAS) [1, 3]: A (a compound having 10 or more and less than 20 is denoted as A)
- HRAS/KRAS (ratio of KD value with respect to HRAS to KD value with respect to KRAS) [2, 4]: B (a compound having 3 or more and less than 10 is denoted as B)

SMILES: CCC[C@H]1C(=O)N[C@@H]([C@@H](C)CC)C(=O)N(C2CC2)CC(=O)N(C)[C@H]2C/C=C\CCN(C2=O)[C@@H](Cc2ccc(C)cc2)C(=O)N(C)CC(=O)N[C@@H](CCc2ccc(Cl)c(Cl)c2)C(=O)N2C[C@H](OCC)C[C@H]2C(=O)NC2(CC(C)(C)C2)C(=O)N(C)[C@@H](CC(C)(C)C)C(=O)N(C)[C@H](C(=O)N(C)C)CC(=O)N1C [PP2726]
- NRAS/KRAS (ratio of KD value with respect to GDP-bound NRAS wild-type protein to KD value with respect to KRAS) ([1]; class symbols): AA (a compound having 20 or more is denoted as AA)
- HRAS/KRAS (ratio of KD value with respect to GDP-bound HRAS wild-type protein to KD value with respect to KRAS) ([2]; class symbols): A (a compound having 10 or more and less than 20 is denoted as A)

SMILES: CCCOC[C@H]1C(=O)N[C@@H]([C@@H](C)CC)C(=O)N(C2CC2)CC(=O)N(C)[C@H]2C/C=C\CCN(C2=O)[C@@H](Cc2ccc(C)cc2)C(=O)N(C)CC(=O)N[C@@H](CCc2ccc(C(F)(F)F)c(OC)c2)C(=O)N2C[C@H](OCC)C[C@H]2C(=O)N(C)C2(CCC2)C(=O)N(C)[C@@H](C2CCCC2)C(=O)N(C)[C@H](C(=O)N(C)C)CC(=O)N1C [PP2330]
- NRAS/KRAS (ratio of KD value with respect to NRAS to KD value with respect to KRAS) [1, 3]: A (a compound having 10 or more and less than 20 is denoted as A)
- HRAS/KRAS (ratio of KD value with respect to HRAS to KD value with respect to KRAS) [2, 4]: A (a compound having 10 or more and less than 20 is denoted as A)

SMILES: CCCN1C(=O)[C@@H]2CCN2C(=O)[C@H](C)N(C)C(=O)[C@H]([C@@H](C)CC)NC(=O)[C@H](CC(C)C)N(C)C(=O)C[C@@H](C(=O)N(C)C)N(C)C(=O)[C@H](C2CCCC2)N(C)C(=O)C2(CCCC2)NC(=O)[C@@H]2C[C@@H](OCC)CN2C(=O)[C@H](CCc2ccc(C(F)(F)F)c(Cl)c2)NC(=O)CN(C)C(=O)[C@@H]1Cc1ccc(C(F)(F)F)cc1 [PP0438] ([NMeL]I[NMeA][Aze][NPrPhe(4-CF3)][Sar][hPhe(3-Cl-4-CF3)][Hyp](Et)[Ac5c][NMeGly(cPent)][NMeD]-NMe2; lactam N-11)
- NRAS/KRAS (ratio of KD value with respect to GDP-bound NRAS wild-type protein to KD value with respect to KRAS) ([1]; SPR): C (A compound having a KD ratio of 0.1 or more and less than 3 is denoted as C)
- HRAS/KRAS (ratio of KD value with respect to GDP-bound HRAS wild-type protein to KD value with respect to KRAS) ([2]; SPR): C (A compound having a KD ratio of 0.1 or more and less than 3 is denoted as C)

SMILES: CC[C@H](C)[C@@H]1NC(=O)[C@H](COC)N(C)C(=O)C[C@@H](C(=O)N(C)C)N(C)C(=O)[C@H](C2CCCC2)N(C)C(=O)C2(CC(C)(C)C2)NC(=O)[C@@H]2C[C@@H](OC(C)C)CN2C(=O)[C@H](CCc2ccc(Cl)c(Cl)c2)NC(=O)CN(C)C(=O)[C@H](CC2CCCCC2)N2CC/C=C\C[C@@H](C2=O)N(C)C(=O)CN(C2CC2)C1=O [PP2513]
- NRAS/KRAS (ratio of KD value with respect to NRAS to KD value with respect to KRAS) [1, 3]: A (a compound having 10 or more and less than 20 is denoted as A)
- HRAS/KRAS (ratio of KD value with respect to HRAS to KD value with respect to KRAS) [2, 4]: A (a compound having 10 or more and less than 20 is denoted as A)

SMILES: CCO[C@@H]1C[C@H]2C(=O)N(C)C3(CCC3)C(=O)N(C)[C@@H](C3CCCC3)C(=O)N(C)[C@H](C(=O)N(C)C)CC(=O)N(C)[C@@H](CC(C)C)C(=O)N[C@@H]([C@@H](C)CC)C(=O)N(C)CC(=O)N(C)[C@H]3C/C=C\CCN(C3=O)[C@@H](Cc3ccc(C)cc3)C(=O)N(C)CC(=O)N[C@@H](CCc3cc(F)c(C(F)(F)F)c(F)c3)C(=O)N2C1 [PP1790]
- NRAS/KRAS (ratio of KD value for NRAS to KD value for KRAS) ([1]; KD ratio, GDP-bound NRAS wild-type vs GDP-bound KRAS wild-type, SPR): A (a compound having 10 or more and less than 20 is denoted as A)
- HRAS/KRAS (ratio of KD value for HRAS to KD value for KRAS) ([2]; KD ratio, GDP-bound HRAS wild-type vs GDP-bound KRAS wild-type, SPR): B (a compound having 3 or more and less than 10 is denoted as B)

SMILES: CCC[C@H]1C(=O)N[C@@H]([C@@H](C)CC)C(=O)N(C)CC(=O)N(C)[C@H]2C/C=C\CCN(C2=O)[C@@H](Cc2ccc(C(F)(F)F)cc2)C(=O)N(C)CC(=O)N[C@@H](CCc2cc(F)c3c(c2)CCC3)C(=O)N2C[C@H](OCC)C[C@H]2C(=O)NC2(CC(C)(C)C2)C(=O)N(C)[C@@H](C2CCCC2)C(=O)N(C)[C@H](C(=O)N(C)C)CC(=O)N1C [PP2849]
- NRAS/KRAS (ratio of KD value with respect to GDP-bound NRAS wild-type protein to KD value with respect to KRAS) ([1]; class symbols): A (a compound having 10 or more and less than 20 is denoted as A)
- HRAS/KRAS (ratio of KD value with respect to GDP-bound HRAS wild-type protein to KD value with respect to KRAS) ([2]; class symbols): A (a compound having 10 or more and less than 20 is denoted as A)

Source: patent publication US20250230193A1, “CYCLIC COMPOUND HAVING SELECTIVE KRAS INHIBITORY EFFECT ON HRAS AND NRAS” (CHUGAI SEIYAKU KABUSHIKI KAISHA, priority 2022, published 2025)
